Assay results: ChEMBL document CHEMBL1142052, “Isosteric ramatroban analogs: selective and potent CRTH-2 antagonists” (Bioorg Med Chem Lett, 2005)

Key:
[1] = molecular target: T1, Prostaglandin D2 receptor 2 (Homo sapiens, UniProt Q9Y5Y4); test: Inhibitory activity for binding of PGD-2 to CRTH-2 in hCRTH-2 binding assay using HEK293 cell membranes
T1 sequence (Q9Y5Y4 whole entry): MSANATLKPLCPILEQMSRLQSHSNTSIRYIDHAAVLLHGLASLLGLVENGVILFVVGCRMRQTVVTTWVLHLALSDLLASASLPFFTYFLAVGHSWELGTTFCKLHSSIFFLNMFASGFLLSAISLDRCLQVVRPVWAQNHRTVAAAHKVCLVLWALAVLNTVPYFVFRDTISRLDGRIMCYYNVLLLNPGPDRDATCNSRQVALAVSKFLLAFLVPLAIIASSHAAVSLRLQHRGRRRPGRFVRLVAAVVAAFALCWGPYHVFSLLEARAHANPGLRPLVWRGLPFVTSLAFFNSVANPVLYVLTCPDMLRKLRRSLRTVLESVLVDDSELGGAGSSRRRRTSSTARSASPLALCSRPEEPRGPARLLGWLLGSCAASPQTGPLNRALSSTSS

[2] = molecular target: T1, Prostaglandin D2 receptor 2; test: Inhibitory concentration for PGD2-mediated receptor activation in a fluorescence assay that measures changes in intracellular calcium; assay type: functional, cell-based
Thromboxane A2 receptor [3] = molecular target: T2, Thromboxane A2 receptor (Homo sapiens, UniProt P21731); test: Inhibitory activity for binding of PGD-2 in hTP binding assay using HEK293 cell membranes
T2 sequence (P21731 whole entry): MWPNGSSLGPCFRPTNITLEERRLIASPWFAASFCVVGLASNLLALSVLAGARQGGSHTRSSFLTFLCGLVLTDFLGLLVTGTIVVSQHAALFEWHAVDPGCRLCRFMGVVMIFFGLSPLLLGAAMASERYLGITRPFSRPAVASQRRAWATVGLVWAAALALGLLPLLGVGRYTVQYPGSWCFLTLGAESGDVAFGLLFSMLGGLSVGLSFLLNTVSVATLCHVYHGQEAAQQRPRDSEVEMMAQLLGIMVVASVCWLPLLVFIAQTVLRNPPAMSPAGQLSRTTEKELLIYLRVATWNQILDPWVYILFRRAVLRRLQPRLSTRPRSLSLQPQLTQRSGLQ

[4] = molecular target: T3, Thromboxane A2 receptor (Homo sapiens) (UniProt P21731); test: Percentage inhibition for binding of PGD-2 in hTP binding assay using HEK293 cell membranes; details: concentration not given here
T3 sequence (whole entry): T2 sequence (P21731 whole entry)

[5] = molecular target: T1, Prostaglandin D2 receptor 2; test: = for PGD2-mediated receptor activation in a fluorescence assay that measures changes in intracellular calcium
[6] = molecular target: T1, Prostaglandin D2 receptor 2; test: Inhibitory activity against CRTH-2 in hCRTH-2 binding assay using HEK293 cell membranes
Thromboxane A2 receptor [7] = molecular target: T2, Thromboxane A2 receptor; test: Inhibitory activity for binding of PGD-2 to hTP in hTP binding assay using HEK293 cell membranes

Structure (SMILES) | Ki [1] | also measured
O=C(O)c1ccc(-n2c3c(c4cc(NS(=O)(=O)c5ccc(F)cc5)ccc42)CCCC3)cc1 | 6.4 µM | –
CC(C)(C)C1CCc2c(c3cc(NS(=O)(=O)c4ccc(F)cc4)ccc3n2CC(=O)O)C1 (configuration not stated) | – | IC50 [2]: 0.12 µM
O=C(O)Cn1c2c(c3cc(NS(=O)(=O)c4ccc(F)cc4)ccc31)CC(c1ccccc1)CC2 (configuration not stated) | – | Ki (Thromboxane A2 receptor [3]): > 20 µM; inhibition [4]: 66%; IC50 [2]: 0.022 µM
O=C(O)CCn1c2c(c3cc(NS(=O)(=O)c4ccc(-c5ccccc5)cc4)ccc31)CCCC2 | 3.3 µM | –
Cc1cccc(S(=O)(=O)Nc2ccc3c(c2)c2c(n3CCC(=O)O)CCCC2)c1 | 4.2 µM | –
CCCS(=O)(=O)Nc1ccc2c(c1)c1c(n2CCC(=O)O)CCCC1 | > 50 µM | –
O=C(O)CCn1c2c(c3ccccc31)C[C@H](NS(=O)(=O)c1ccc(F)cc1)CC2 [RAMATROBAN] | 0.29 µM | Ki (Thromboxane A2 receptor [3]): 0.018 µM; inhibition [4]: 98%; IC50 [5]: 0.34 µM
O=C(O)CCn1c2c(c3cc(NS(=O)(=O)c4ccc(F)cc4)ccc31)CCCC2 | 0.25 µM | Ki (Thromboxane A2 receptor [3]): 1.5 µM; Ki [6]: 0.25 µM
O=C(O)Cn1c2c(c3cc(NS(=O)(=O)c4ccc(F)cc4)ccc31)CCCC2 | 0.03 µM | Ki (Thromboxane A2 receptor [7]): > 20 µM
O=C(O)/C=C\n1c2c(c3cc(NS(=O)(=O)c4ccc(F)cc4)ccc31)CCCC2 | 19 µM | –
O=C(O)CCn1c2c(c3cc(NS(=O)(=O)c4ccccc4)ccc31)CCCC2 | 1.2 µM | –
O=C(O)CCn1c2c(c3cc(NS(=O)(=O)c4ccc(F)cc4F)ccc31)CCCC2 | 3.6 µM | –
CCC(C(=O)O)n1c2c(c3cc(NS(=O)(=O)c4ccc(F)cc4)ccc31)CCCC2 (configuration not stated) | 18 µM | –
CC1CCc2c(c3cc(NS(=O)(=O)c4ccc(F)cc4)ccc3n2CC(=O)O)C1 (configuration not stated) | – | Ki (Thromboxane A2 receptor [3]): > 20 µM; inhibition [4]: 30%; IC50 [2]: 0.0097 µM
O=C(O)CCn1c2c(c3cc(NS(=O)(=O)c4ccc(F)c(Cl)c4)ccc31)CCCC2 | 1.7 µM | –
O=C(O)CCn1c2c(c3cc(NS(=O)(=O)c4ccc(Cl)cc4)ccc31)CCCC2 | 3 µM | –
Cc1ccccc1S(=O)(=O)Nc1ccc2c(c1)c1c(n2CCC(=O)O)CCCC1 | > 50 µM | –
O=C(O)c1cccc(-n2c3c(c4cc(NS(=O)(=O)c5ccc(F)cc5)ccc42)CCCC3)c1 | 27 µM | –
O=C(O)CCCCn1c2c(c3cc(NS(=O)(=O)c4ccc(F)cc4)ccc31)CCCC2 | 4.6 µM | –
CC(C(=O)O)n1c2c(c3cc(NS(=O)(=O)c4ccc(F)cc4)ccc31)CCCC2 (configuration not stated) | 4.4 µM | –
CC(Cn1c2c(c3cc(NS(=O)(=O)c4ccc(F)cc4)ccc31)CCCC2)C(=O)O (configuration not stated) | > 50 µM | –

Structure (SMILES) | Ki [1] | also measured
O=C(O)CCn1c2c(c3cc(NC(=O)Nc4ccccc4)ccc31)CCCC2 | > 50 µM | –
Cc1ccc(S(=O)(=O)Nc2ccc3c(c2)c2c(n3CCC(=O)O)CCCC2)cc1 | 3.2 µM | –
Nc1ccc2c(c1)c1c(n2CCC(=O)O)CCCC1 | > 50 µM | –
O=C(O)CCn1c2c(c3cc(NS(=O)(=O)c4ccc5ccccc5c4)ccc31)CCCC2 | 7.4 µM | –
O=C(O)CCn1c2c(c3cc(NCc4ccccc4)ccc31)CCCC2 | 17 µM | –
O=C(O)Cn1c2c(c3cc(NS(=O)(=O)c4ccc(F)cc4)ccc31)CCC2 | – | IC50 [2]: 0.13 µM
O=C(O)CCn1c2c(c3cc(NS(=O)(=O)c4cccs4)ccc31)CCCC2 | 7.6 µM | –
O=C(O)CN1c2ccc(NS(=O)(=O)c3ccc(F)cc3)cc2C2CCCCCC21 (configuration not stated) | – | Ki (Thromboxane A2 receptor [3]): > 20 µM; IC50 [2]: 0.022 µM
O=C(O)CCCn1c2c(c3cc(NS(=O)(=O)c4ccc(F)cc4)ccc31)CCCC2 | 8.3 µM | –
O=C(O)CCn1c2c(c3cc(NS(=O)(=O)c4ccc(O)cc4)ccc31)CCCC2 | 7.4 µM | –
CC(CC(=O)O)n1c2c(c3cc(NS(=O)(=O)c4ccc(F)cc4)ccc31)CCCC2 (configuration not stated) | > 50 µM | –
O=C(O)CCn1c2c(c3cc(NS(=O)(=O)c4ccccc4F)ccc31)CCCC2 | 0.97 µM | –
O=P(O)(O)CCn1c2c(c3cc(NS(=O)(=O)c4ccc(F)cc4)ccc31)CCCC2 | > 50 µM | –
O=C(O)CCn1c2c(c3cc(NS(=O)(=O)c4ccc(F)c(F)c4)ccc31)CCCC2 | 4.2 µM | –
O=C(O)CCn1c2c(c3cc(NS(=O)(=O)c4ccc(Oc5ccccc5)cc4)ccc31)CCCC2 | 7.5 µM | –
O=C(O)CCn1c2c(c3cc(NC(=O)c4ccccc4)ccc31)CCCC2 | > 50 µM | –
O=C(O)CCn1c2c(c3cc(NS(=O)(=O)c4cccc(F)c4)ccc31)CCCC2 | 1.3 µM | –
O=C(O)c1ccccc1-n1c2c(c3cc(NS(=O)(=O)c4ccc(F)cc4)ccc31)CCCC2 | 33 µM | –
COc1ccc(S(=O)(=O)Nc2ccc3c(c2)c2c(n3CCC(=O)O)CCCC2)cc1 | 2.1 µM | –
O=S(=O)(O)CCn1c2c(c3cc(NS(=O)(=O)c4ccc(F)cc4)ccc31)CCCC2 | 2.4 µM | –
